Patent US5624812A, “Method for measuring carbon dioxide and reagent therefor” (Toyo Boseki Kabushiki Kaisha, priority 1993, dated 1997)

Legend:
[1] = target: T1, phosphoenolpyruvate carboxylase yielded by Acetobacter hansenii IFO 14820 (ATCC 35959) (Novacetimonas hansenii, UniProt A0ABQ0SBC7)
T1 sequence (A0ABQ0SBC7 1-933): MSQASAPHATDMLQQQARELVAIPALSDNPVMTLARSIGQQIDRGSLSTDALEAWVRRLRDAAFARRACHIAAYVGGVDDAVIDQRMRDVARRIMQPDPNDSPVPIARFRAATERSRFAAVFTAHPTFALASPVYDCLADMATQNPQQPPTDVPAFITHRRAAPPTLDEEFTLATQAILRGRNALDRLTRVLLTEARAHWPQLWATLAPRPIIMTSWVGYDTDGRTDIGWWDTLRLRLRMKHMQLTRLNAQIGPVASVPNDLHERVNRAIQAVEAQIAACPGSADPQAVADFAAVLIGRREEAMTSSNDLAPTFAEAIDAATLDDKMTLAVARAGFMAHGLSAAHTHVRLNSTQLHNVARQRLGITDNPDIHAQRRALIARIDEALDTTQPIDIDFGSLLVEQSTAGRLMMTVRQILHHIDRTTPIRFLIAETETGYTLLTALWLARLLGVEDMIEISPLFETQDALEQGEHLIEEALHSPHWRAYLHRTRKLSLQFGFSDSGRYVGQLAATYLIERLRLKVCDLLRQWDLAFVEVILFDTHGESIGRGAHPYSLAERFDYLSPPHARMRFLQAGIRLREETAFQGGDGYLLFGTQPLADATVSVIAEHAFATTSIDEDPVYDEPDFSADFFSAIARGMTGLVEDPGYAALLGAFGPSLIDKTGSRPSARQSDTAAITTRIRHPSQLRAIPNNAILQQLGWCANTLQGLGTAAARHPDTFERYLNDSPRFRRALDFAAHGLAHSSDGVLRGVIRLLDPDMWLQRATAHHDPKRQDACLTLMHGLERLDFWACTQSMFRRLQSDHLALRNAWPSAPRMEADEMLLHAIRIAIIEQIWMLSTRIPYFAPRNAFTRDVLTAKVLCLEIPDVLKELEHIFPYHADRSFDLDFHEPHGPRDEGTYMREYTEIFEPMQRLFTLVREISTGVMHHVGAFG
Method: A reaction mixture (2.9 ml) containing 50 mM Tris-HCl, 10 mM Na2 CO3, 3.2 mM phosphoenolpyruvic acid, 100 mM MgSO4, 0.14 mM NADH and 50 U/ml malate dehydrogenase is prepared in a cuvette (d=1 cm) and preheated at 30° C. for about 5 minutes. An enzyme solution (0.1 ml) is added thereto and the mixture is gently stirred. A change in absorbance at 340 nm is recorded for 2-3 minutes with a spectrophotometer using water adjusted to 30° C. as a control, and change in absorbance per minute is calculated from the initial linear portion thereof (ΔOD test). A blank test is performed by using 50 mM phosphate buffer (pH 7.0) in place of the enzyme solution and following the steps to determine changes in absorbance per minute (ΔOD blank).

[2] = substrate: C=C(OP(=O)(O)O)C(=O)O; test: purified protein, by the assay type; conditions: pH 7.0; 30.0 °C

Q: With `Nc1ncnc2c1ncn2[C@@H]1O[C@H](COP(=O)(O)OP(=O)(O)O)[C@@H](O)[C@H]1O` [ADP] as the molecule, how does the “Inhibition by ADP” value [1] read?
A: Not inhibited

Q: `CC(=O)SCCNC(=O)CCNC(=O)[C@H](O)C(C)(C)COP(=O)(O)OP(=O)(O)OC[C@H]1O[C@@H](n2cnc3c(N)ncnc32)[C@H](O)[C@@H]1OP(=O)(O)O` [acetyl CoA] was tested. Which “Activation by acetyl CoA” value [1] did it give?
A: Not activated

B1: phosphoenolpyruvate carboxylase yielded by Acetobacter hansenii IFO 14820 (ATCC 35959) (Novacetimonas hansenii) (protein)
chain: MSQASAPHATDMLQQQARELVAIPALSDNPVMTLARSIGQQIDRGSLSTDALEAWVRRLRDAAFARRACHIAAYVGGVDDAVIDQRMRDVARRIMQPDPNDSPVPIARFRAATERSRFAAVFTAHPTFALASPVYDCLADMATQNPQQPPTDVPAFITHRRAAPPTLDEEFTLATQAILRGRNALDRLTRVLLTEARAHWPQLWATLAPRPIIMTSWVGYDTDGRTDIGWWDTLRLRLRMKHMQLTRLNAQIGPVASVPNDLHERVNRAIQAVEAQIAACPGSADPQAVADFAAVLIGRREEAMTSSNDLAPTFAEAIDAATLDDKMTLAVARAGFMAHGLSAAHTHVRLNSTQLHNVARQRLGITDNPDIHAQRRALIARIDEALDTTQPIDIDFGSLLVEQSTAGRLMMTVRQILHHIDRTTPIRFLIAETETGYTLLTALWLARLLGVEDMIEISPLFETQDALEQGEHLIEEALHSPHWRAYLHRTRKLSLQFGFSDSGRYVGQLAATYLIERLRLKVCDLLRQWDLAFVEVILFDTHGESIGRGAHPYSLAERFDYLSPPHARMRFLQAGIRLREETAFQGGDGYLLFGTQPLADATVSVIAEHAFATTSIDEDPVYDEPDFSADFFSAIARGMTGLVEDPGYAALLGAFGPSLIDKTGSRPSARQSDTAAITTRIRHPSQLRAIPNNAILQQLGWCANTLQGLGTAAARHPDTFERYLNDSPRFRRALDFAAHGLAHSSDGVLRGVIRLLDPDMWLQRATAHHDPKRQDACLTLMHGLERLDFWACTQSMFRRLQSDHLALRNAWPSAPRMEADEMLLHAIRIAIIEQIWMLSTRIPYFAPRNAFTRDVLTAKVLCLEIPDVLKELEHIFPYHADRSFDLDFHEPHGPRDEGTYMREYTEIFEPMQRLFTLVREISTGVMHHVGAFG
Q: How did the Km [2] turn out when B1 was run?
A: 210 µM
